One assay has as its system DAAO. Particulars: cited from earlier work.
A further assay has as its target recombinant human DAAO (Homo sapiens, UniProt P14920). The assay is described as follows: Inhibition of recombinant human DAAO. The class given is biochemical. Particulars: qualitative statement.

“Also recorded” adds a separate entry of the source. Bounds are passed on as bounds.

Chain of recombinant human DAAO (P14920 whole entry): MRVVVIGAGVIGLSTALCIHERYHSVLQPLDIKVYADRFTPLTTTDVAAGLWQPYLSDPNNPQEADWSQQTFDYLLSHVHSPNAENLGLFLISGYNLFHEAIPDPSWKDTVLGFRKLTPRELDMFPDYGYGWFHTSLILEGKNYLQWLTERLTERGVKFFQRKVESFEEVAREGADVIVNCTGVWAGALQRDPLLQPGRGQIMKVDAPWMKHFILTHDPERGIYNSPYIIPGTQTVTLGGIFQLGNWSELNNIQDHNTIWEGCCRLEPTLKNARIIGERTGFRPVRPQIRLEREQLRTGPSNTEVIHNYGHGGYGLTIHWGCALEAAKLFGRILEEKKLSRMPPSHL

With `Oc1noc2cc(Cl)ccc12` [compound 1, 6-chlorobenzo[d]isoxazol-3-ol], in the assay on DAAO, the IC50 is 188 nM.

Take `O=c1[nH]c2c(F)cc(F)cc2n1O` [compound 3, 4,6-Difluoro-1-hydroxy-1Hbenzo[d]imidazol-2(3H)-one]: the IC50 with DAAO is 80 nM.

`O=c1cc(COCc2ccccc2)occ1O` [9j]: the “DAAO inhibitory potency (in words)” value at recombinant human DAAO is reported as “dramatic loss of potency”.

As for `COc1coc(CO)cc1=O` [6b], the “DAAO inhibitory potency (in words)” value on recombinant human DAAO is “complete loss of potency; also recorded: completely devoid of any inhibitory activity”.

In the case of `O=C(O)c1ccc[nH]1` [5a, pyrrole-2-carboxylic acid], the IC50 in the assay on DAAO is less than 10000 nM.

For the molecule `O=c1ccn(CCc2ccccc2)cc1O` [compound 19, 3-hydroxy-1-phenethyl-4(1H)-pyridinone], on recombinant human DAAO, the “DAAO inhibitory potency (in words)” value is given as “no inhibitory activity”.

Turning to `O=c1cc(COC2CCCCO2)occ1O` (stereo not drawn) [9k], the “DAAO inhibitory potency (in words)” value on recombinant human DAAO is given as “significantly less potent than kojic acid”.

On to `COCc1cc(=O)c(O)co1` [9a], for which the “DAAO inhibitory potency (in words)” value on recombinant human DAAO is reported as “significantly less potent than kojic acid”.

In the case of `CCOCc1cc(=O)c(O)co1` [9b], on recombinant human DAAO, the “DAAO inhibitory potency (in words)” value is reported as “significantly less potent than kojic acid”.

Take `O=c1cc(CCc2ccccc2)occ1O` [compound 17, 5-hydroxy-2-phenethyl-4H-pyran-4-one]: the “DAAO inhibitory potency (in words)” value on recombinant human DAAO is “slightly more potent than the ether counterpart 9c”.

With `O=c1cc(COc2ccccc2)occ1O` [9c], on recombinant human DAAO, the “DAAO inhibitory potency (in words)” value is on record as “potency comparable or superior to that of kojic acid”.

Consider `O=c1oc2ccccc2cc1O` [2b, 3-hydroxychromen-2-one], for which the 50% inhibitory concentration (IC50) with DAAO was 440 nM.

As to `O=C(O)c1cc[nH]n1` [5b, 1H-pyrazole-3-carboxylic acid], the IC50 in the assay with DAAO is less than 100000 nM.

For the molecule `O=C(O)c1cc(CCc2ccccc2)[nH]n1` [5d], the half-inhibitory concentration (IC50) in the assay with DAAO is less than 1000 nM.

Turning to `O=C(O)c1cc(CCc2ccccc2)c[nH]1` [5c], the IC50 with DAAO was less than 1000 nM.

(Values after paper PMC3678123 (Bioorganic & medicinal chemistry letters, 2013).)
